Columns and labels:
Assay type in all cases: cell-based, human
[1] = system: tumor-organoids UHN6, UHN17, UHN3, UHN5 and UHN15 (primary PDAC); assay: MTT assay of tumor-organoid cultures treated with drugs
Excerpt: (§1) (A) Time lapse imaging sequence of UHN6 derived organoids. (B) H&E, phase and immunofluorescence images for KRT19 (bright) and DAPI (dark) of images of tumor-organoids and their matched primary tumors. ((C) H&E images showing maintenance of inter-organoid heterogeneity in histoarchitecture representing variation in primary patient tumor. (D) Normalized MTT assay readings of organoid cultures treated with gemcitabine for 4 days. E) Normalized MTT assay readings of organoid cultures with gemcitabine and epigenetic inhibitor of the H3K27me3 writer EZH2 (UNC1999). (F) Normalized MTT reading of tumor-organoids treated with UNC199 alone. See online Methods for details. (G) Immunostaining for H3K27me3 (bright) in two primary patient tumors (top panel) and corresponding tumor-organoids (bottom panel). (H) Basal 02 consumption as measured by Seahorse™ flux analyzer with and without UNC1999 treatment. For MTT and oxygen consumptions experiments, data represent mean+/−S.D. P value (t-test, two tailed): N.S-, not significant; *−p=0.01-0.05; **−p=0.001-0.01; ***, p=<0.001 (n=3). All scale bars equal to 50 μm.
(§2) For MTT and oxygen consumptions experiments, data represent mean+/− S.D. P value (t-test, two tailed): N.S-, not significant; *−p=0.01-0.05; **−p=0.001-0.01; ***, p=<0.001 (n=3). (B) Immunostaining for H3K27me3 in control (DMSO) or UNC 1999-treated tumor-organoids. Scale bars, 50 μm. (C) Tumor-organoids (top panel) and primary tumors (bottom panel) derived from tumor UHN3, UHN 5 and UHN15, show consistent patient-specific variation in staining for H3K27me3. Scale bars, 50 μm.
For pancreas progenitor organoid culture, T9 cells were resuspended and plated in the PTOM (Pancreatic Progenitor and Tumor Organoid Media) containing DMEM with factors including serum-free supplements, FGFs, and insulin. The cells were plated on a bed of Matrigel as described before 3. At day 8 in 3D culture, replace culture medium with fresh POMM (Pancreatic Organoid Maintenance Media) (PTOM media without FGFs) with 5% Matrigel every 4 days. PODM I (Pancreatic Organoid Differentiation Media) contains DMEM with B27, 2-phospho ascorbic acid, FGF, EGF, TGF beta inhibitors. PODM II contains DMEM with B27, 2-phospho ascorbic acid, FGF, EGF. Fresh tissues of primary tumors from patients were washed twice with DMEM, digested with collagenase (Roche) and resuspended in PTOM. Tumor cells were then seeded in 3D culture chambers as described above. Culture media were replaced every 4 days. For serial passaging of organoids, day 16 organoids were treated with collagenase for 2 hours then further dissociated with trypsin for 10-30 minutes. Cells were collected and re-seeded in 3D culture following protocols as described above. […]
We analyzed five organoid cultures, UHN6, UHN17, UHN3, UHN5 and UHN15. […]

[2] = system: progenitor-organoids; assay: Toxicity of epigenetic inhibitors to normal cells in progenitor-organoids; settings: compared with JQ1, LAQ824, SGC0946, data not shown
Experimental: For pancreas progenitor organoid culture, T9 cells were resuspended and plated in the PTOM (Pancreatic Progenitor and Tumor Organoid Media) containing DMEM with factors including serum-free supplements, FGFs, and insulin. The cells were plated on a bed of Matrigel as described before 3. At day 8 in 3D culture, replace culture medium with fresh POMM (Pancreatic Organoid Maintenance Media) (PTOM media without FGFs) with 5% Matrigel every 4 days. PODM I (Pancreatic Organoid Differentiation Media) contains DMEM with B27, 2-phospho ascorbic acid, FGF, EGF, TGF beta inhibitors. PODM II contains DMEM with B27, 2-phospho ascorbic acid, FGF, EGF. Fresh tissues of primary tumors from patients were washed twice with DMEM, digested with collagenase (Roche) and resuspended in PTOM. Tumor cells were then seeded in 3D culture chambers as described above. Culture media were replaced every 4 days. For serial passaging of organoids, day 16 organoids were treated with collagenase for 2 hours then further dissociated with trypsin for 10-30 minutes. Cells were collected and re-seeded in 3D culture following protocols as described above. MCF-10A cells were obtained from ATCC. Gene expression data will be uploaded into NCBI's Gene Expression Omnibus (GEO). […]

[3] = system: tumor-organoids UHN17, UHN3; assay: Basal O2 consumption measured by Seahorse flux analyzer with and without UNC1999
Excerpt: as §1
Recent studies reveal a relationship between oxygenation and regulation of H3K27me3 epigenetic mark^28,29. […] We measured basal respiration rates to investigate if tumor-organoids show differences in oxygen consumption. […]

[4] = system: H3K27me3 mark in UHN17 organoids; assay: Immunostaining for H3K27me3 in control (DMSO) or UNC1999-treated tumor-organoids; settings: at concentrations with significant growth-inhibitory effects
Excerpt: as §2
Inhibitors of BET (JQ1), histone deacetylase (LAQ824), DOT1L (SGC0946), G9a (A366) and EZH2 (UNC1999) were tested in progenitor-organoids to investigate their toxicities to normal cells. […] A366 and UNC1999 were administered to organoid cultures in combination with the current standard of care, gemcitabine (See FIG. 6 legend and FIG. 12). Organoids were not sensitive to G9a inhibition (FIG. 12A).

Compound	sensitivity of organoids to G9a inhibition (MTT) ([1]; in combination with gemcitabine, tumor-organoids)	toxicity to normal cells [2]	basal oxygen consumption after EZH2 inhibition [3]	suppression of proliferation by EZH2 inhibition alone (MTT) ([1]; UNC1999 alone, UHN17, UHN3, UHN5)	proliferation upon EZH2 inhibition compared to gemcitabine treatment alone (MTT) ([1]; in combination with gemcitabine, UHN17, UHN3, UHN5, UHN15)	H3K27me3 mark after treatment [4]	growth inhibition in MTT assays ([1]; gemcitabine for 4 days, all five organoid cultures UHN6, UHN17, UHN3, UHN5, UHN15) [%]
COc1cc2c(cc1OCCCN1CCCC1)N=C(N)C21CCC1 [A366]	not sensitive	least toxic	–	–	–	–	–
CCCc1cc(C)[nH]c(=O)c1CNC(=O)c1cc(-c2ccc(N3CCN(C(C)C)CC3)nc2)cc2c1cnn2C(C)C [UNC1999]	–	least toxic	suppressed	effective in suppressing proliferation	dose-dependent decreases in proliferation	suppressed the H3K27me3 mark	–
Nc1ccn([C@@H]2O[C@H](CO)[C@@H](O)C2(F)F)c(=O)n1 [gemcitabine]	–	–	–	–	–	–	30

Reference: patent US12247224B2, “Organoids for drug screening and personalized medicine” (SENTING, LLC, priority 2014, dated 2025)
